Assay results reported in patent publication US20230257429A1, “PEPTIDE ADJUVANT FOR ITS THERAPEUTIC APPLICATIONS IN VIRAL AND TUMOUR VACCINE DEVELOPMENT AND CANCER IMMUNOTHERAPY AND AUTOIMMUNE DISEASE DIAGNOSIS AND TREATMENTS” (National University of Singapore, priority 2020, published 2023).
“Also recorded” adds a separate entry of the source. Ends that are not written are not given here.

What was measured:
[1] = target: T1, MyD88 (Homo sapiens, UniProt Q99836); experiment: MyD88 inhibitor pre-treatment before stimulation, cytokine ELISA; assay type: cell-based; details: monocytes, st-2825 30 μM, 1 hr pre-incubation
T1 construct: endogenous in cells; host or cells: PBMC / monocytes from blood donors
Protocol: In some experiments, cells were pre-treated with the MyD88 inhibitor st-2825 (MedChemExpress) or the Caspase-1 inhibitor Ac-YVAD (InvivoGen) for 1 hr before stimulation with TLR ligands or the purified nuclear proteins. In some other experiments, cells were pre-incubated for 1 hr with anti-TLR2, TLR4 and TLR5 antibodies (InvivoGen) before stimulation. The optimal st-2825 and Ac-YVAD concentrations were determined based on both their effects on cell viability and LPS-induced cytokine production. Cell viability was determined using the CELLTITER 96® AQueous One Solution Cell Proliferation (MTS) Assay (Promega).
We then examined whether NCL still induces cytokines when MyD88 is inhibited [Kawai, T. and Akira, S., Semin Immunol 19: 24-32 (2007)]. A MyD88 inhibitor st-2825 was used in this experiment (FIG. 3A). Its optimal concentration was, after titration of its cytotoxicity and its inhibition of LPS-induced cytokine production, determined to be 30 μM (FIG. 5). […] The inhibition of TNFα production by Ac-YVAD could be explained by its blocking autocrine monocytes activation through the IL-1β these cells produce (FIG. 4).

[2] = system: PBMC; experiment: Peptide binding to and penetration of PBMC, flow cytometry; assay type: cell-based, human; details: 1 hr at 4° C., fixed/permeabilized, streptavidin-AF488
Protocol: PBMC re-suspended in 100 μl macrophage serum free media (3×10^6/ml) were incubated with different peptides (200 μg/ml). PBMC (100 μl) were incubated with the peptides for 1 hr at 37° C. or 4° C. Cells were washed twice in 2% FBS/PBS and incubated with streptavidin-AF488 and Zombie (NIR) Fixable viability stain-APC-Cy7 for 30 min at 4° C. Cells were then fixed with 1% PFA for 30 min at room temperature and analysed using the Fortessa analyser (BD). In some experiments, PBMC were, after incubation with peptides, incubated with Zombie (NIR) Fixable viability stain (APC-Cy7) for 30 min at 4° C. Cells were then fixed and permeabilized with BD CYTOFIX/CYTOPERM™ Kit for 20 min at 4° C., and then incubated with streptavidin-AF488 for 30 min at 4° C. In some experiments, PBMC were, after incubation with the peptides, stained with fluorescent mouse antibodies specific for monocytes (CD14/BV711), T cells (CD3/PerCP-Cy5-5) and B cells (CD19/Pacific blue). Cells were then stained with Zombie (NIR) Fixable viability stain-APC-Cy7 and streptavin-AF488, with or without membrane permeabilization. In these experiments, monocytes, T cells and B cells were separately gated to detect surface peptide binding and intracellular peptide penetration.

[3] = target: T2, TLR2 (Homo sapiens, UniProt O60603); experiment: TLR2 binding assay (ELISA plate); design: purchased R&D Systems; details: for peptide binding to coated TLR2: biotin peptides at increasing concentrations
[4] = system: monocytes; experiment: Monocyte activation, TNFα and IL-1β ELISA; assay type: cell-based, human; details: for TNFα induction from monocytes (7 NCL peptides): peptides 50 or 200 μg/ml
Protocol: Buffy coat fractions were obtained from healthy blood donors at the Singapore Health Sciences Authority, with Institutional ethics approval, and PBMC were isolated using Ficoll-Paque (GE Healthcare). To isolate monocytes, PBMC were re-suspended to 1×10^7 cells/ml in the RPMI medium contained 5% (v/v) BCS and incubated for 1 hr in T75 flasks (20 ml/flask). Monocytes that adhered were harvested. To culture macrophages and DC [Cao, W., et al., Blood 107: 2777-2785, (2006), incorporated herein by reference], monocytes were resuspended to 1×10^6 cells/ml and cultured in 6-well plates (2 ml/well). Macrophages were cultured by adding M-CSF to 20 ng/ml and DC were cultured with 20 ng/ml GM-CSF and 40 ng/ml IL-4. M-CSF, GM-CSF and IL-4 were obtained from R&D Systems (Mineapolis, Minn.). Cells were cultured for 6 days with half of the media being replenished every two days.
[…] Where TLR ligands were used to stimulate these cells, they were added to the media: LPS (500 ng/ml for DC and macrophages and 10 ng/ml for PMBC and monocytes, InvivoGen), flagellin (1 μg/ml, InvivoGen), lipoteichic acid (LTA, 10 μg/ml). Cell activation was determined by measuring TNFα and IL-1β in the culture media using ELISA kits (Invitrogen).

[5] = target: T2, TLR2; experiment: TLR and NF-κB-luciferase assay in 293T cells, TLR2/TLR1/TLR6/TLR10; assay type: cell-based; design: expressed in transfected cells; host or cells: human embryonic kidney 293T cells; details: peptides 200 μg/ml, 24 hr
Protocol: TLR-mediated NF-κB activation was determined using a Dual Luciferase Reporter Assay (Promega), in which two luciferase reporter plasmids were used. […] Transfection was performed using the TurboFect Transfection Reagent (Thermo Fisher Scientific). After 24 hr, cells were harvested and cultured for 24 hr in 96-well plates coated with the purified proteins or, as controls, cultured in blank plates but stimulated with TLR ligands. Cells were lysed to measure both firefly and Renilla luciferase activities and, in each sample, the firefly activity was normalized to the Renilla luciferase activity and expressed as relative NF-κB activation.
TLRs and, where it required, co-receptors were co-transfected in a total of 4 combinations, i.e. TLR2/1/6/10, TLR4/CD14/MD2, TLR5, or TLR3/7/8/9. Two luciferase expression vectors were used: one expresses the firefly luciferase under 5 repeats of the NF-κB gene promoter and the other expresses the Renilla luciferase under the constitutively active CMV promoter (FIG. 3A).

[6] = system: PBMC; experiment: PBMC activation, TNFα and IL-1β ELISA; assay type: cell-based, human; design: PBMC activation (TNFα) by FBRL peptides: dose or concentration left out as unconfirmed; details: peptides added to 50 or 160, 24 hr
[7] = system: autologous CD4 and CD8 T cells; experiment: Antigen-loaded DC co-culture with autologous lymphocytes, proliferation; assay type: cell-based, human; details: DC:T 1:5, 2 weeks co-culture, CellTrace Violet
Protocol: PBMC were isolated from healthy blood donors from which monocytes were isolated to culture DC and the remaining cells (mostly lymphocytes) were stored frozen as a source of autologous lymphocytes. DC were then incubated for 24 hr with P2+G, IPA1E2 or the IPA1E2-P2+G fusion polypeptide (SEQ ID NO: 58) in round bottom 96-well plates (5×10^4 cells/well) without adding additional adjuvants. The frozen lymphocytes were revived and labelled with CellTrace Violet (2.5 μM) for 10 min at 37° C. and then added to the DC wells at 2.5×10^5 cells/well (DC:T ratio=1:5). After 2 weeks of co-culture, the proliferation of CD4+ and CD8+ T cell and CD19+ B cell was analyzed by flow cytometry.

[8] = target: T3, Recombinant human TLR2-10×His (R&D Systems) (human, UniProt O60603 21-590); experiment: ELISA: biotin peptide on coated TLR2
T3 construct: Bought protein; also called His-tagged TLR2
T3 sequence (O60603 other isoform, or with tags, fused parts or gaps limits assumed): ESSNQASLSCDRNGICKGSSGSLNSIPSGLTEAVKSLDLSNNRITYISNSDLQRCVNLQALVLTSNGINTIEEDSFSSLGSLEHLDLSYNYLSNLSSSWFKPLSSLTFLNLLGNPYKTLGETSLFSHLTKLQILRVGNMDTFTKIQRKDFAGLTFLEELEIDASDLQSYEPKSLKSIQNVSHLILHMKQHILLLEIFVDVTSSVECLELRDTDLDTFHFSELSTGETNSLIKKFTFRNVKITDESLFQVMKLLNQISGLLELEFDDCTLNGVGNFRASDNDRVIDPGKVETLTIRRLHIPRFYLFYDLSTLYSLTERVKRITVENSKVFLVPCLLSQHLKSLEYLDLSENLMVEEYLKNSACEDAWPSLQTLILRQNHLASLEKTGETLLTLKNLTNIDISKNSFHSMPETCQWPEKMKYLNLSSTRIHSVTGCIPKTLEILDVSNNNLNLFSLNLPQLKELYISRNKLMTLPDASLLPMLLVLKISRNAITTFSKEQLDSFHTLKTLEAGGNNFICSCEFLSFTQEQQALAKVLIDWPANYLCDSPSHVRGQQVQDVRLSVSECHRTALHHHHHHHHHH

T1 sequence (Q99836 whole entry): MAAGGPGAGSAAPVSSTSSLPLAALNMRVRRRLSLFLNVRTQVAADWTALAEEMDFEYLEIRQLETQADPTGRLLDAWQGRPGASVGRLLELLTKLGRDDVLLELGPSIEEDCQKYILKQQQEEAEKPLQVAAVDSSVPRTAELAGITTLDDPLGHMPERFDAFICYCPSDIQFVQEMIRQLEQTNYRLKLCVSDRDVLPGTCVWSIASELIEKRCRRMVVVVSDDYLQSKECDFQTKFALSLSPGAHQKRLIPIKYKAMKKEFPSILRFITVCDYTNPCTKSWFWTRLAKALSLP

## NC(=O)[C@H]1CCS[C@@H]2C[C@]3(CCCN3C(=O)Cc3ccc(NC(=O)COc4ccc(Cl)cc4Cl)cc3)C(=O)N12 [st-2825]
[1]
  inhibition of HMGB1 and LPS induction of TNFα and IL-1β: also inhibited
  inhibition of NCL induction of TNFα and IL-1β: partially but significantly inhibited

## GGFGGRGGGRGGFGGRGGGRGGRGGFGGRGRG (NCL-P1)
[2]
  intracellular pool / cell penetration (CPP activity) in PBMC: accumulate intracellular pools
[3]; TLR2 coated 2 μg/ml
  peptide binding to coated TLR2: dose-dependent and saturable binding to TLR2
[4]; monocytes, 24 hr
  cytokine induction, soluble versus coated (immobilized) form: induced more cytokines than immobilized peptides
[4]; 24 hr
  TNFα induction from monocytes (7 NCL peptides): induced TNFα
[4]; soluble peptide 10 and 20 μg/ml
  TNFα induction from monocytes at lower concentrations: induced little TNFα
[4]; soluble peptide 80 and 160 μg/ml
  TNFα induction from monocytes at higher concentrations: strongly induced TNFα production

## NCL(698)-HA: NCL-HA mutant in which 12 amino acids were deleted from the C-terminal end
[3]; protein coated 10 μg/ml, TLR2 2 μg/ml
  TLR2 binding to coated NCL-HA mutants (summary experiment): bound
[4]; protein coated on plates, 24 hr, ELISA
  TNFα and IL-1β production from monocytes: continued to stimulate monocytes

## NCL-P3: control peptide covering the C-terminal 12 residues of NCL outside the GAR/RGG domain (DHKPQGKKTKFE; NCL-P3)
[5]
  TLR2-mediated NF-κB activation by peptides: not observed
[2]
  intracellular pool / cell penetration (CPP activity) in PBMC: no intracellular pool; also recorded: not a 12-AA non-GAR/RGG peptide
[3]; TLR2 coated 2 μg/ml
  peptide binding to coated TLR2: no detectable binding; also recorded: lacked TLR2 binding
[4]; soluble peptide 10 to 160 μg/ml, 24 hr
  TNFα induction from monocytes, all concentrations: no TNFα induction

## RGGFGGGRGRGGGFRGRGRGG (FBRL-P2)
[6]
  PBMC activation (TNFα) by FBRL peptides: activated PBMC

## RGGFGGRGGGRGGRGGFGGRG (NCL-P6)
[2]
  intracellular pool / cell penetration (CPP activity) in PBMC: all lacked cell penetration; also recorded: diminished CPP activities
[3]; TLR2 coated 2 μg/ml
  concentration at which saturated TLR2 binding was reached: 80 µg/mL
  peptide binding to coated TLR2: largely replicated NCL-P2 in TLR2 binding
[4]; 24 hr
  TNFα induction from monocytes (7 NCL peptides): induced TNFα; also recorded: minor adjuvant activity

## RGGGFGGRGGFGDRGGRGGRGG (FBRL-P1)
[6]
  PBMC activation (TNFα) by FBRL peptides: activated PBMC

B1: IPA1E2-P2+G: P2+G synthesized in fusion with the 30-AA peptide antigen IPA1E2 (peptide)
chain: GQGQLVKRPKIMRFISHLWLALESANSEKRGGFGGRGGGRGGRGGFGGRGGRGGFGGRGGFRGGRGG
modifications: IPA1E2-P2+G
notes: P2+G synthesized in fusion with the 30-AA peptide antigen IPA1E2
[7]
  T cell proliferation / activation induced by peptide-loaded DC: significantly increased T cell proliferation

## RGGFGGRGGG (not fully specified (N-terminus), Synthetic peptide; also called NCL-4) [NCL-P4 peptide, N-terminal biotin]
[8]
  binding result: no binding (tested: 200 µg/ml)

## GGFGGRGGGRGGFGGRGGGRGGRGGFGGRGRG (not fully specified (N-terminus), Synthetic peptide) [NCL-P1 peptide (32 residues), N-terminal biotin]
[8]
  binding result: binds

## RGGRGGFGGRG (not fully specified (N-terminus), Synthetic peptide) [NCL-P5 peptide, N-terminal biotin]
[8]
  binding result: binds

## DHKPQGKKTKFE (not fully specified (N-terminus), Synthetic peptide) [NCL-P3 control peptide (C-terminal 12 residues of NCL), N-terminal biotin]
[8]
  binding result: no binding (tested: 0.64 to 1,000 ng/ml)
